Consider 4 molecules from ChEMBL document CHEMBL1141913, “Novel 2-aminothiazonaphthalimides as visible light activatable photonucleases: effects of intercalation, heterocyclic-fused area and side chains” (Bioorg Med Chem Lett, 2005).

This experiment deals with Calf thymus DNA. Briefly: Scatchard binding constant between calf thymus DNA (CT-DNA) measured in 30 mM Tris HCl buffer at pH 7.5. Type of experiment: nucleic-acid assay. To be noted: Bos taurus.
The molecule `CN(C)CCN1C(=O)c2cccc3cc4nc(N)sc4c(c23)C1=O` registered a Binding constant of 25600 M⁻¹.
`CN(C)CCN1C(=O)c2cccc3c2c(cc2nc(N)sc23)C1=O`: the Binding constant was 19800 M⁻¹.
The figure for `CN(C)CCCN1C(=O)c2cccc3cc4nc(N)sc4c(c23)C1=O` is 47300 M⁻¹; for `CN(C)CCCN1C(=O)c2cccc3c2c(cc2nc(N)sc23)C1=O` it is 28700 M⁻¹.
